Results: patent US20230115945A1, “AMINOPYRIMIDINE COMPOUNDS” (TYRA BIOSCIENCES, INC., priority 2019, published 2023)

What was measured:
[1] = target: T1, FGFR3 (Homo sapiens, UniProt P22607); assay: Kinase binding assay (Kd), FGFR3; settings: 11-point 3-fold dilution, qPCR readout
T1 construct: made in house; host or cells: E. coli host derived from BL21, infected with T7 phage
Outline: (§1)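 Affinity-bead displacement format: kinase-tagged T7 phage, biotinylated ligand on streptavidin beads, test compound in 20% SeaBlock/0.17× PBS/6 mM DTT, 1 h RT. Eluted kinase quantified by qPCR; Kd derived by non-linear least-squares Hill fitting.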

[2] = target: T2, FGFR3 (V555M) (Homo sapiens, UniProt P22607, V555M); assay: Kinase binding assay (Kd), FGFR3 (V555M); settings: 11-point 3-fold dilution, qPCR readout
T2 construct: made in house; host or cells: E. coli host derived from BL21, infected with T7 phage
T2 sequence (P22607 23-806 V555M): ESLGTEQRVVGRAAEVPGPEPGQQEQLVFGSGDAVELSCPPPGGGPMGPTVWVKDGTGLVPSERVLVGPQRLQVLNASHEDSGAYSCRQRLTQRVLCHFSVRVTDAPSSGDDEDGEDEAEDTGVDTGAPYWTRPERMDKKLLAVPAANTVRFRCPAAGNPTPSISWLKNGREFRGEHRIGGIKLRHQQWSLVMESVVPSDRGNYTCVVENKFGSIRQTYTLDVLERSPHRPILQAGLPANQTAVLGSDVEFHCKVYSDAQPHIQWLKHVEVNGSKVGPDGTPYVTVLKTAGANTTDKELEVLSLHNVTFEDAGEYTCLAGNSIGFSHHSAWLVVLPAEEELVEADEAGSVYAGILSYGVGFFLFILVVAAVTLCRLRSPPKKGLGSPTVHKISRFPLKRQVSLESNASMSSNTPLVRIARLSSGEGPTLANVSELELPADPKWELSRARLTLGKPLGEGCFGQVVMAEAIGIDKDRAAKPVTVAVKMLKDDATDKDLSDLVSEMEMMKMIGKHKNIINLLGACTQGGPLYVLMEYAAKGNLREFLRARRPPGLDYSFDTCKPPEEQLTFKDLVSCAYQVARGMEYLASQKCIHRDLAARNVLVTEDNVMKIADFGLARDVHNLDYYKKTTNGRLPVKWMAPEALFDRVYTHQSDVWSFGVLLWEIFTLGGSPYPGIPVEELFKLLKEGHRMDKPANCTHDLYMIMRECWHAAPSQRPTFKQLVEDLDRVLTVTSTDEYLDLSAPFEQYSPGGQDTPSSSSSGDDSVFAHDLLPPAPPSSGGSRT
Outline: as §1

[3] = target: T3, FGFR4 (Homo sapiens, UniProt P22455); assay: Kinase binding assay (Kd), FGFR4; settings: 11-point 3-fold dilution, qPCR readout
T3 construct: made in house; host or cells: E. coli host derived from BL21, infected with T7 phage
T3 sequence (P22455 22-802): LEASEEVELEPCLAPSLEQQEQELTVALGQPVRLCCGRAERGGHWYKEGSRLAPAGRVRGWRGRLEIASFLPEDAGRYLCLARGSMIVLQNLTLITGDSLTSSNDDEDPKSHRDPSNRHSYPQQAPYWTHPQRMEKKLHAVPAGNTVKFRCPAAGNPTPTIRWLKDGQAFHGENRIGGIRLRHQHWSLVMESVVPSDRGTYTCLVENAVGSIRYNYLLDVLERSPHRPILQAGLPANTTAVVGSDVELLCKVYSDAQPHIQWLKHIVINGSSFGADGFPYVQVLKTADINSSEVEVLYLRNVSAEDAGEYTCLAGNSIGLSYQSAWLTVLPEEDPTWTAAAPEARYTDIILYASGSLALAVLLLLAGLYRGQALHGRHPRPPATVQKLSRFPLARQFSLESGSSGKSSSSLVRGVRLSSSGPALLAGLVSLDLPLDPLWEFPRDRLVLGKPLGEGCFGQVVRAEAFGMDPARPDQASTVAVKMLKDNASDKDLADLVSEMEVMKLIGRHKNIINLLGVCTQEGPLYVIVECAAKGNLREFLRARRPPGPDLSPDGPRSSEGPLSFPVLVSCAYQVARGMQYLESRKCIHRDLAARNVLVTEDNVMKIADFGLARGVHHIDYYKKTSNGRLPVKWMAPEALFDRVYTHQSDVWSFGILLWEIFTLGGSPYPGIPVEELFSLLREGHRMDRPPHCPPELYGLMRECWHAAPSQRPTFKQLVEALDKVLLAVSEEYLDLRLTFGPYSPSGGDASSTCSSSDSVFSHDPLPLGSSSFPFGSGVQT
Outline: as §1

[4] = target: T4, FGFR1-BCR Ba/F3 cells (Homo sapiens, UniProt P11362); assay: Ba/F3 cell viability assay, FGFR1; assay type: cell-based; settings: FGFR1-BCR Ba/F3, 48 hours, Cell Titer-Glo 2.0; read-out: Ba/F3 Cells FGFR1 (IC50 nM)
T4 construct: Ba/F3 FGFR1; FGFR1-BCR; Advanced Cellular Dynamics, (Seattle, WA); fused on or other part: P11274 (Breakpoint cluster region protein)
T4 sequence (P11362 whole entry, change not shown, the tested form may be a part): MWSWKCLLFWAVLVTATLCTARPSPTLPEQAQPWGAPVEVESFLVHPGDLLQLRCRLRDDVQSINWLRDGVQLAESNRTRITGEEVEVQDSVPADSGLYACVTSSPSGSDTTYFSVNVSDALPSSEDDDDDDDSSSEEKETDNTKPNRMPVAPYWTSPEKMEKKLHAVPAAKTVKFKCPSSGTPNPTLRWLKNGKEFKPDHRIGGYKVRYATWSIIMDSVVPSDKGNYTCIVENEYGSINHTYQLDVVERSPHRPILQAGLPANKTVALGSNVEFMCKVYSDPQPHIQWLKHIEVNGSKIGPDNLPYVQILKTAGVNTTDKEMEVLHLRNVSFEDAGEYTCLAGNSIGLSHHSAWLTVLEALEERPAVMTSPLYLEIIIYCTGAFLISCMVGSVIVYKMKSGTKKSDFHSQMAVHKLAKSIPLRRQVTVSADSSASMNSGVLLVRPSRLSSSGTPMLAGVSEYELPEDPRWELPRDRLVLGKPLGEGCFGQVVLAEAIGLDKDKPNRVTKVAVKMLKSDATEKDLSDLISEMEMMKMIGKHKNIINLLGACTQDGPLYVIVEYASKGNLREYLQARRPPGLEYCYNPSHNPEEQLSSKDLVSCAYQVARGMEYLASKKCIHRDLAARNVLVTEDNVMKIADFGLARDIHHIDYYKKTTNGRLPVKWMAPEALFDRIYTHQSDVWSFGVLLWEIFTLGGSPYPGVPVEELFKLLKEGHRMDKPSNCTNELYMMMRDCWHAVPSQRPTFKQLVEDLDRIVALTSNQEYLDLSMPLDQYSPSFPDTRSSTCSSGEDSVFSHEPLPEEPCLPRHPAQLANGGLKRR
Text: Experimental Purpose: Recombinant kinase fusions are transduced into parental Ba/F3, which becomes dependent upon this constitutive kinase activity for IL3-independent survival. Inhibition of kinase activity leads to cell death, which is monitored using CellTiter-Glo® 2.0 (Promega) which measures intracellular ATP concentration that in turn serves as a marker for viability. FGFR1-BCR Ba/F3 and FGFR3-BAIAP2L1 Ba/F3 were obtained from Advanced Cellular Dynamics (Seattle, Wash.)
Cell Viability Assay Procedure: Cell Titer-Glo® 2.0 Luminescent cell viability assay reagent was purchased from Promega (Madison, Wis.). FGFR1-BCR Ba/F3 and FGFR3-BAIAP2L1 Ba/F3 cells were cultured in RPMI1640 media supplemented with 10% fetal bovine serum. Cultures were maintained at 37° C. in a humidified atmosphere of 5% CO2 and 95% air.
Cells were plated in 96-well clear bottom/white plates (Corning #3903) at 10,000 cells/well in 100 μl of media, incubated overnight. The next day, test compound DMSO stock solutions were made at 10 mM and 2 μM final concentration. Compounds were then added to cells in a 9-dose, 10-fold dilution series starting at 30 μM with an HP 300e Digital Dispenser (each dose was applied in triplicate). DMSO was backfilled to each well up to 301 nL total volume of test compound+DMSO, and a total of 301 nL DMSO was added to a control/no test compound well in triplicate. The cells in cell culture plates were incubated with the compounds at 37° C. and 5% CO2 for 48 hours. Then 50 μl of Cell Titer Glo 2.0 reagent was added to each well of the cell culture plates. The contents were covered from light and mixed on an orbital shaker at room temperature for 10 min. Luminescence was recorded by a Synergy H1 Microplate Reader (Biotek, Winooski, Vt.). Cells were assessed as a percentage of DMSO only treated control cells. Curves were plotted and IC50 values were calculated using the GraphPad Prism 8 program based on a sigmoidal dose-response equation (4 parameter).

[5] = tested on: KG-1 cells (Acute Myeloid Leukemia, FGFR1OP2-FGFR1 fusion); assay: Cancer cell line cell viability assay, KG-1; assay type: cell-based; settings: Homo sapiens, 72 hours, Cell Titer-Glo 2.0, read-out: Cancer Cell Viability Assays KG1 (IC50 nM)
Text: To detect the change of intracellular ATP by Cell Titer-Glo® and to evaluate the inhibitory effect of the compounds on cancer cell lines by determining the in vitro IC50 value of the compounds.
Cell Titer-Glo® 2.0 Luminescent cell viability assay reagent was purchased from Promega (Madison, Wis.). RT112/84, SNU-16, and KG-1 cell lines were purchased from American Type Culture Collection (Manassas, Va.). UM-UC-14 cell line was purchased from Sigma (St. Louis, Mo.). RT112/84, UM-UC-14, SNU-16, and KG-1 cells were cultured in RPMI1640 media supplemented with 10% fetal bovine serum. Cultures were maintained at 37° C. in a humidified atmosphere of 5% CO2 and 95% air.
Cell Viability Assay Procedure: Cells were plated in 96-well clear bottom/white plates (Corning #3903) at 10,000 cells/well in 100 μl of media, incubated overnight. The next day, test compound DMSO stock solutions were made at 10 mM and 2 μM final concentration. Compounds were then added to cells in a 9-dose, 10-fold dilution series starting at 30 μM with an HP 300e Digital Dispenser (each dose was applied in triplicate). DMSO was backfilled to each well up to 301 nL total volume of test compound+DMSO, and a total of 301 nL DMSO was added to a control/no test compound well in triplicate. The cells in cell culture plates were incubated with the compounds at 37° C. and 5% CO2 for 72 hours. Then 50 μl of Cell Titer Glo 2.0 reagent was added to each well of the cell culture plates. The contents were covered from light and mixed on an orbital shaker at room temperature for 10 min. Luminescence was recorded by a Synergy H1 Microplate Reader (Biotek, Winooski, Vt.). Cells were assessed as a percentage of DMSO only treated control cells. Curves were plotted and IC50 values were calculated using the GraphPad Prism 8 program based on a sigmoidal dose-response equation (4 parameter).

T1 sequence (P22607 23-806): as the sequence (P22607 23-806 V555M) above, with M533V counted along it

SMILES	Kd [1] [nM]	Kd [2] [nM]	Kd [3] [nM]	GI50 [4] [nM]	IC50 [5] [nM]
C=CC(=O)Nc1ccc2c(c1)c(C)cn2-c1nc(Nc2ccc(N=S(C)(C)=O)c(F)c2)ncc1Cl [Example 60, N-[1-[5-Chloro-2-[4-[[dimethyl(oxo)-λ^6-sulfanylidene]amino]-3-fluoro-anilino]pyrimidin-4-yl]-3-methyl-indol-5-yl]prop-2-enamide]	3.5	1.7	42	2	4
C=CC(=O)Nc1ccc2c(c1)c(C)cn2-c1nc(Nc2ccc(N=S(C)(C)=O)cc2)ncc1Cl [Example 61, N-[1-[5-Chloro-2-[4-[[dimethyl(oxo)-λ^6-sulfanylidene]amino]anilino]pyrimidin-4-yl]-3-methyl-indol-5-yl]prop-2-enamide]	6	2	100	2	6
C=CC(=O)Nc1ccc2c(c1)c(C)cn2-c1nc(Nc2ccc(N=S(C)(C)=O)c(F)c2)ncc1C#N [Example 62, N-[1-[5-Cyano-2-[4-[[dimethyl(oxo)-λ^6-sulfanylidene]amino]-3-fluoro-anilino]pyrimidin-4-yl]-3-methyl-indol-5-yl]prop-2-enamide]	20	11	170	9	17
C=CC(=O)Nc1ccc2c(c1)c(C)cn2-c1nc(Nc2ccc(N=S(C)(C)=O)c(F)c2)ncc1C [Example 63, N-[1-[2-[4-[[dimethyl(oxo)-λ^6-sulfanylidene]amino]-3-fluoro-anilino]-5-methyl-pyrimidin-4-yl]-3-methyl-indol-5-yl]prop-2-enamide]	3	1	39	1	1
C=CC(=O)Nc1ccc2c(c1)c(C)cn2-c1nc(Nc2ccc(N=S(C)(C)=O)c(OC)c2)ncc1Cl [Example 64, N-[1-[5-Chloro-2-[4-[[dimethyl(oxo)-λ^6-sulfanylidene]amino]-3-methoxy-anilino]pyrimidin-4-yl]-3-methyl-indol-5-yl]prop-2-enamide]	4	1	59	3	1
C=CC(=O)Nc1ccc2c(ccn2-c2nc(Nc3ccc(N=S(C)(C)=O)cc3)ncc2Cl)c1 [Example 66, N-[1-[5-chloro-2-[4-[[dimethyl(oxo)-λ^6-sulfanylidene]amino]anilino]-pyrimidin-4-yl]indol-5-yl]prop-2-enamide]	21	5.3	680	6	20
C=CC(=O)Nc1ccc2c(ccn2-c2nc(Nc3ccc(S(C)(=N)=O)cc3)ncc2Cl)c1 (stereo not shown) [Example 70, N-[1-[5-Chloro-2-[4-(methylsulfonimidoyl)anilino]-pyrimidin-4-yl]indol-5-yl]prop-2-enamide]	21	9.2	370	8	9
C=CC(=O)Nc1ccc2c(-c3nc(Nc4ccc(N=S(C)(C)=O)cc4)ncc3Cl)cn(C)c2c1 [Example 92, N-[3-[5-chloro-2-[4-[[dimethyl(oxo)-λ^6-sulfanylidene]amino]anilino]pyrimidin-4-yl]-1-methyl-indol-6-yl]prop-2-enamide]	12	3	230	1	5
